Data reported in patent US10450316B2, “Certain protein kinase inhibitor” (Chongqing Fochon Pharmaceutical Co., Ltd., priority 2015, dated 2019).

These molecules were tested on BE(2)-C cell (assay: Cell proliferation assay (MTS) in BE(2)-C cells). Details: Homo sapiens, inhibition of BE(2)-C cell proliferation, 48 h.
Assay type: cell-based
In short: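 BE(2)-C cells (3000/well, DMEM + 10% FBS) were treated for 48 h at 37 °C with compound at 1.5–10000 nM in nine concentrations. Viability was measured by MTS (2 h, stopped with SDS) at 490/650 nm, and IC50 was calculated from the dose-response.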
Work on CCN1C[C@@]2(C)CN(Cc3ccc(Nc4ncc(F)c(-c5cc(F)c6nc7n(c6c5)C5(CC7)CC5)n4)nc3)C[C@@]2(C)C1 [Example 140, N-(5-(((3aR,6aS)-5-ethyl-3a,6a-dimethyl-hexahydropyrrolo[3,4-c]pyrrol-2(1H)-yl)methyl)pyridin-2-yl)-5-fluoro-4-(5-fluoro-2,3-dihydro-spiro[benzo[d]pyrrolo[1,2-a]imidazole-1,1′-cyclopropan]-7-yl)pyrimidin-2-amine] yielded an IC50 of over 100 nM. For Fc1cnc(Nc2ccc(CN3CC4CNC4C3)cn2)nc1-c1cc(F)c2nc3n(c2c1)C1(CC3)CC1 (stereo not drawn) [Example 141, N-(5-((3,6-diazabicyclo[3.2.0]heptan-3-yl)methyl)pyridin-2-yl)-5-fluoro-4-(5-fluoro-2,3-dihydro-spiro[benzo[d]pyrrolo[1,2-a]imidazole-1,1′-cyclo-propan]-7-yl)pyrimidin-2-amine], the IC50 was over 1000 nM. Work on CN1CC2CN(Cc3ccc(Nc4ncc(F)c(-c5cc(F)c6nc7n(c6c5)C5(CC7)CC5)n4)nc3)CC21 (stereo not drawn) [Example 142, 5-fluoro-4-(5-fluoro-2,3-dihydrospiro[benzo[d]pyrrolo[1,2-a]imidazole-1,1′-cyclopropan]-7-yl)-N-(5-((6-methyl-3,6-diazabicyclo[3.2.0]heptan-3-yl)methyl)pyridin-2-yl)pyrimidin-2-amine] yielded an IC50 of over 1000 nM. Work on CCN1CC2CN(Cc3ccc(Nc4ncc(F)c(-c5cc(F)c6nc7n(c6c5)C5(CC7)CC5)n4)nc3)CC21 (stereo not drawn) [Example 143, N-(5-((6-ethyl-3,6-diazabicyclo[3.2.0]heptan-3-yl)methyl)pyridin-2-yl)-5-fluoro-4-(5-fluoro-2,3-dihydrospiro[benzo[d]pyrrolo[1,2-a]imidazole-1,1′-cyclopropan]-7-yl)pyrimidin-2-amine] yielded an IC50 of over 1000 nM. Work on Fc1cnc(Nc2ccc(CN3CCN4CCC[C@H]4C3)cn2)nc1-c1cc(F)c2nc3n(c2c1)C1(CC3)CC1 [Example 144, (S)-5-fluoro-4-(5-fluoro-2,3-dihydrospiro[benzo [d]pyrrolo[1,2-a]imidazole-1,1′-cyclopropan]-7-yl)-N-(5-((hexahydropyrrolo[1,2-a]pyrazin-2(1H)-yl)methyl)pyridin-2-yl)pyrimidin-2-amine] yielded an IC50 of 10 to 100 nM. With Fc1cnc(Nc2ccc(CN3CCN4CCC[C@@H]4C3)cn2)nc1-c1cc(F)c2nc3n(c2c1)C1(CC3)CC1 [Example 145, (R)-5-fluoro-4-(5-fluoro-2,3-dihydrospiro[benzo [d]pyrrolo[1,2-a]imidazole-1,1′-cyclopropan]-7-yl)-N-(5-((hexahydropyrrolo[1,2-a]pyrazin-2(1H)-yl)methyl)pyridin-2-yl)pyrimidin-2-amine] the IC50 was 10 to 100 nM. O[C@@H]1C[C@H]2CN(Cc3ccc(Nc4ncc(F)c(-c5cc(F)c6nc7n(c6c5)C5(CC7)CC5)n4)nc3)CCN2C1 [Example 146, (7R,8aS)-2-((6-((5-fluoro-4-(5-fluoro-2,3-dihydro-spiro[benzo[d]pyrrolo[1,2-a]imidazole-1,1′-cyclo-propan]-7-yl)pyrimidin-2-yl)amino)pyridin-3-yl)methyl)octahydropyrrolo[1,2-a]pyrazin-7-ol] showed an IC50 of over 1000 nM. With NC1C2CN(Cc3ccc(Nc4ncc(F)c(-c5cc(F)c6nc7n(c6c5)C5(CC7)CC5)n4)nc3)CC12 (stereo not drawn) [Example 147, 3-((6-((5-fluoro-4-(5-fluoro-2,3-dihydrospiro [benzo[d]pyrrolo[1,2-a]imidazole-1,1′-cyclo-propan]-7-yl)pyrimidin-2-yl)amino)pyridin-3-yl)methyl)-3-azabicyclo[3.1.0]hexan-6-amine] the IC50 was over 1000 nM. For Fc1cnc(Nc2ccc(CN3CCN4CCOC[C@H]4C3)cn2)nc1-c1cc(F)c2nc3n(c2c1)C1(CC3)CC1 [Example 148, (R)-5-fluoro-4-(5-fluoro-2,3-dihydrospiro[benzo [d]pyrrolo[1,2-a]imidazole-1,1′-cyclopropan]-7-yl)-N-(5-((hexahydropyrazino[2,1-c][1,4]oxazin-8(1H)-yl)methyl)pyridin-2-yl)pyrimidin-2-amine], the IC50 was 10 to 100 nM. With Fc1cnc(Nc2ccc(CN3CCNCC3)cn2)nc1-c1cc(F)c2nc3n(c2c1)CCC3 [Example 149, 5-fluoro-4-(5-fluoro-2,3-dihydro-1H-benzo[d]pyrrolo[1,2-a]imidazol-7-yl)-N-(5-(piperazin-1-ylmethyl)pyridin-2-yl)pyrimidin-2-amine] the IC50 was over 100 nM. CN1CCN(Cc2ccc(Nc3ncc(F)c(-c4cc(F)c5nc6n(c5c4)CCC6)n3)nc2)CC1 [Example 150, 5-fluoro-4-(5-fluoro-2,3-dihydro-1H-benzo[d]pyrrolo[1,2-a]imidazol-7-yl)-N-(5-((4-methyl-piperazin-1-yl)methyl)pyridin-2-yl)pyrimidin-2-amine] gave an IC50 of 10 to 100 nM. In the case of Fc1cnc(Nc2ccc(CN3CCNCC3)cn2)nc1-c1cc(F)c2nc3n(c2c1)[C@@H](C(F)F)CC3 [Example 152, (R)-4-(1-(difluoromethyl)-5-fluoro-2,3-dihydro-1H-benzo[d]pyrrolo[1,2-a]imidazol-7-yl)-5-fluoro-N-(5-(piperazin-1-ylmethyl)pyridin-2-yl)pyrimidin-2-amine], the IC50 is reported as over 1000 nM. CN1CCN(Cc2ccc(Nc3ncc(F)c(-c4cc(F)c5nc6n(c5c4)[C@@H](C(F)F)CC6)n3)nc2)CC1 [Example 153, (R)-4-(1-(difluoromethyl)-5-fluoro-2,3-dihydro-1H-benzo[d]pyrrolo[1,2-a]imidazol-7-yl)-5-fluoro-N-(5-((4-methylpiperazin-1-yl)methyl)pyridin-2-yl)pyrimidin-2-amine] gave an IC50 of over 1000 nM. CCN1CCN(Cc2ccc(Nc3ncc(F)c(-c4cc(F)c5nc6n(c5c4)[C@@H](C(F)F)CC6)n3)nc2)CC1 [Example 154, (R)-4-(1-(difluoromethyl)-5-fluoro-2,3-dihydro-1H-benzo[d]pyrrolo[1,2-a]imidazol-7-yl)-N-(5-((4-ethylpiperazin-1-yl)methyl)pyridin-2-yl)-5-fluoropyrimidin-2-amine] gave an IC50 of over 1000 nM. COC[C@H]1CCc2nc3c(F)cc(-c4nc(Nc5ccc(CN6CCNCC6)cn5)ncc4F)cc3n21 [Example 158, (R)-5-fluoro-4-(5-fluoro-1-(methoxymethyl)-2,3-dihydro-1H-benzo[d]pyrrolo[1,2-a]imidazol-7-yl)-N-(5-(piperazin-1-ylmethyl)pyridin-2-yl)pyrimidin-2-amine] gave an IC50 of over 1000 nM. For COC[C@H]1CCc2nc3c(F)cc(-c4nc(Nc5ccc(CN6CCN(C)CC6)cn5)ncc4F)cc3n21 [Example 159, (R)-5-fluoro-4-(5-fluoro-1-(methoxymethyl)-2,3-dihydro-1H-benzo[d]pyrrolo[1,2-a]imidazol-7-yl)-N-(5-((4-methylpiperazin-1-yl)methyl)pyridin-2-yl)pyrimidin-2-amine], the IC50 was over 1000 nM. Work on CCN1CCN(Cc2ccc(Nc3ncc(F)c(-c4cc(F)c5nc6n(c5c4)[C@@H](COC)CC6)n3)nc2)CC1 [Example 160, (R)-N-(5-((4-ethylpiperazin-1-yl)methyl)pyridin-2-yl)-5-fluoro-4-(5-fluoro-1-(methoxymethyl)-2,3-dihydro-1H-benzo[d]pyrrolo[1,2-a]imidazol-7-yl)pyrimidin-2-amine] yielded an IC50 of over 100 nM. CC1(C)CCc2nc3c(F)cc(-c4cc(Nc5ccc(CN6C7CCC6CNC7)cn5)ncc4F)cc3n21 [Example 161, N-(5-((3,8-diazabicyclo[3.2.1]octan-8-yl)methyl)pyridin-2-yl)-5-fluoro-4-(5-fluoro-1,1-dimethyl-2,3-dihydro-1H-benzo[d]pyrrolo[1,2-a]imidazol-7-yl)pyridin-2-amine] was tested, and the IC50 was over 100 nM.
